Experimental data published in PMC11679793, “Structure-Activity Relationship Study of Majusculamide D: Overcoming Metabolic Instability and Severe Toxicity with a Fluoro Analogue” (Marine Drugs, 2024).
Like-named read-outs stand apart in the source and are kept apart here.

Experiments:
[1] = Preliminary water solubility test; type: physicochemical; settings: 25 °C, ultrasonic treatment 30 min, visual
pancreatic cancer cells [2] = system: pancreatic cancer cells; set-up: method as in PMID 30673235; settings: cited from earlier work
pancreatic cancer cells [3] = test: EdU assay; type: cell-based; settings: 48 h treatment, concentration-dependent, vs control
From the text: The EdU ([…]) assay is a well-established method that assesses cell proliferation activity by detecting DNA synthesis. The results of EdU assays indicated […]
concentration-dependent manner. […]
the DNA synthesis of pancreatic cancer cells, thereby inhibiting the proliferation of pancreatic cancer cells, which was consistent with the results of clone formation assays. […]
Snail and TCF8/ZEB1 both […]
are transcription factors that can inhibit the expression of E-cadherin and promote the EMT process. Vimentin is a marker protein of mesenchymal cells, and its expression increases during EMT, further contribute to the process of metastasis by supporting the structural changes needed for cell migration and invasion.
We examined the effects of compound 1a on above key proteins involved in tumor progression pathways employing Western blot analysis in PANC-1 cells and MIA PaCa-2 […]
1a might inhibit cancer cell invasion and migration by enhancing cell-cell adhesion and barrier function. Conversely, the expression levels of β-catenin, Fibronectin, Snail, […]
Cells were resuspended at a concentration of 300 cells/mL, and 2 mL of the suspension was added to each well of a 6-well plate. […] The colonies were imaged under a microscope and quantified using ImageJ. […]

PANC-1 cells = test: MTT cell activity assay (inhibitory activity against PANC-1 cells); type: cell-based
Experimental: A total of 3000 PANC-1 cells were resuspended in 200 μL of culture medium and seeded into 96-well plates. After 24 h, the cells were treated with the compound and incubated for an additional 72 h. Following the incubation, 20 μL of 5 mg/mL MTT solution (Solarbio, China) was added to each well in the dark, and the cells were incubated for another 4 h. After incubation, the culture medium was discarded, and the wells were washed with PBS to remove any residual medium. Then, 200 μL of DMSO was added to each well to fully dissolve the formazan crystals, and the solution was mixed thoroughly. The absorbance was measured at 492 nm/570 nm, and the data were analyzed using GraphPad Prism.

PANC-1 xenograft tumor = system: PANC-1 xenograft tumor
Experimental: Furthermore, a xenografted murine subcutaneous tumor model was employed to evaluate the effects of majusculamide D and the optimized analogues 1c and 1n (Figure 1B). PANC1-bearing BALB/c nude mice were separated randomly, with a total of six mice in each group. Gemcitabine was chosen as the positive drug; the mice were then administered intravenous doses of 1c (5 mg/kg), 1n (5 mg/kg), 1a (5 mg/kg), and gemcitabine (20 mg/kg) every other day for 24 days.
A total of 4 × 10^6 PANC-1 cells suspended in 100 μL PBS were subcutaneously injected into the right shoulder region of BALB/c nude mice. When the tumor volume reached approximately 200 mm^3, the mice were euthanized, and the tumor tissues were harvested and designated as F1 generation. Tumor tissues were then cut into small cubes measuring approximately 3 × 3 × 3 mm, which were implanted into new BALB/c mice to propagate the tumors. This procedure was repeated to obtain the F2 generation of tumors. Finally, mice bearing F3 generation transplant tumors were used for drug treatment experiments. When the tumor volume reached approximately 80–100 mm^3, the mice were randomly divided into five groups (n = 6): control group, 5 mg/kg compound 1a group, 5 mg/kg compound 1c group, 5 mg/kg compound 1n group, and 20 mg/kg gemcitabine group. The compounds 1a, 1c, and 1n were dissolved in DMSO and then diluted with 0.9% physiological saline to achieve a final concentration of 0.5 mg/mL as the dosing concentration. Gemcitabine was dissolved directly in 0.9% saline to achieve a final concentration of 2 mg/mL as the dosing concentration. The compounds were administered intravenously every two days, alternating between the left and right tail veins to minimize vein damage. Injections were performed using ultra-fine syringes (30G needles) to reduce stress and ensure consistent delivery. The body weight and tumor volume of the mice were measured every four days. On day 24, the mice were euthanized, and the tumor weights were recorded. Tumor volume (V) was calculated using the formula: V = (ab^2)/2, with “a” representing the long diameter of the tumor and “b” representing the short diameter of the tumor. […] Tumor weight was used to calculate the tumor inhibition rate (Figure 1G).

SMILES: CCCCC(C)CC(C)C(=O)N(C)C(Cc1ccc(OC)cc1)C(=O)NC(C(=O)N(C)C(C(=O)N1CC(O)CC1C(=O)N1C(=O)C=CC1C)C(C)C)C(C)OC(C)=O (stereo not shown) [Compound 1a, Majusculamide D]
- Solubility (mg/mL) [1]: Insoluble
- selectivity against pancreatic cancer cells in vitro (pancreatic cancer cells [2]): up to 4 × 10^3
- cell proliferation ability (EdU, DNA synthesis) (pancreatic cancer cells [3]): decreased in comparison to the control group
- IC50 (PANC-1 cells; Homo sapiens, PANC-1, 72 h, read-out: IC50 (nM), inhibitory activity against PANC-1 cells (Table 2), PANC-1 cells, 72 h incubation, mean ± SD, n = 3, Table 2 series): 1.99 ± 0.68 nM
- IC50 (PANC-1 cells; read-out: IC50 (nM), inhibitory activity against PANC-1 cells (Table 1), PANC-1 cells, 72 h incubation, mean ± SD, n = 3): 1.88 ± 0.82 nM
- mortality rate among the mice (PANC-1 xenograft tumor; 5 mg/kg i.v. every other day, 24 days, n = 6): 50%
- mice dead in treated group (PANC-1 xenograft tumor; 5 mg/kg i.v., xenografted mouse model, six mice per group): 3 mice
- tumor inhibition rate (%) (PANC-1 xenograft tumor; calculated from tumor weight, day 24, 1a, 1c, 1n 5 mg/kg, gemcitabine 20 mg/kg i.v.): 64.8%
- tumor weight (PANC-1 xenograft tumor; day 24, i.v. every other day, 1a, 1n 5 mg/kg, gemcitabine 20 mg/kg, mean ± SD): 0.393 ± 0.049 g
- tumor volume (PANC-1 xenograft tumor; i.v. every other day for 24 days, 1a, 1n 5 mg/kg, gemcitabine 20 mg/kg, mean ± SD, n = 6): 353.0 ± 66.7 mm^3
